Assay results: ChEMBL document CHEMBL4431337, “Synthesis and bioactivities of novel pyrazole oxime derivatives containing a 1,2,3-thiadiazole moiety” (Bioorg Med Chem Lett, 2016)
pIC50: −log10 of the molar value.

Tests used:
HCT-116 = assay: Cytotoxicity against human HCT116 cells assessed as inhibition of cell growth after 48 hrs by MTT assay; type: functional, cell-based; conditions: HCT-116, 48 h
SGC-7901 = assay: Cytotoxicity against human SGC7901 cells assessed as inhibition of cell growth after 48 hrs by MTT assay; type: functional, cell-based; conditions: SGC-7901, 48 h
Tetranychus cinnabarinus [1] = assay: Acaricidal activity against Tetranychus cinnabarinus assessed as mortality at 50 ug/ml pre-incubated with mite-infested Sieva bean plants for 3 secs and measured 48 hrs post dose; type: functional
Tetranychus cinnabarinus [2] = assay: Acaricidal activity against Tetranychus cinnabarinus assessed as mortality at 200 ug/ml pre-incubated with mite-infested Sieva bean plants for 3 secs and measured 48 hrs post dose; type: functional
Tetranychus cinnabarinus [3] = assay: Acaricidal activity against Tetranychus cinnabarinus assessed as mortality at 100 ug/ml pre-incubated with mite-infested Sieva bean plants for 3 secs and measured 48 hrs post dose; type: functional
Huh-7 = assay: Cytotoxicity against human HuH7 cells assessed as inhibition of cell growth after 48 hrs by MTT assay; type: functional, cell-based; conditions: Huh-7, 48 h
Aphis craccivora [4] = assay: Insecticidal activity against Aphis craccivora assessed as mortality at 200 ug/ml pre-incubated with horsebean shoot with aphids for 2 secs and measured 48 hrs post dose by foliar application method; type: functional
Plutella xylostella [5] = assay: Insecticidal activity against Plutella xylostella assessed as mortality at 200 ug/ml pre-incubated with cabbage leaves for 2 to 3 secs and measured 48 hrs post dose by leaf disc assay; type: functional; conditions: foliar
PANC-1 = assay: Cytotoxicity against human PANC1 cells assessed as inhibition of cell growth after 48 hrs by MTT assay; type: functional, cell-based; conditions: PANC-1, 48 h
Plutella xylostella [6] = assay: Insecticidal activity against Plutella xylostella assessed as mortality at 100 ug/ml pre-incubated with cabbage leaves for 2 to 3 secs and measured 48 hrs post dose by leaf disc assay; type: functional; conditions: foliar
Aphis craccivora [7] = assay: Insecticidal activity against Aphis craccivora assessed as mortality at 100 ug/ml pre-incubated with horsebean shoot with aphids for 2 secs and measured 48 hrs post dose by foliar application method; type: functional
Aphis craccivora [8] = assay: Insecticidal activity against Aphis craccivora assessed as mortality at 50 ug/ml pre-incubated with horsebean shoot with aphids for 2 secs and measured 48 hrs post dose by foliar application method; type: functional
Plutella xylostella [9] = assay: Insecticidal activity against Plutella xylostella assessed as mortality at 50 ug/ml pre-incubated with cabbage leaves for 2 to 3 secs and measured 48 hrs post dose by leaf disc assay; type: functional; conditions: foliar

SMILES	pIC50 (HCT-116)	pIC50 (SGC-7901)	mortality at 50 µg/mL (Tetranychus cinnabarinus [1]) [%]	mortality at 200 µg/mL (Tetranychus cinnabarinus [2]) [%]	mortality at 100 µg/mL (Tetranychus cinnabarinus [3]) [%]	pIC50 (Huh-7)	mortality at 200 µg/mL (Aphis craccivora [4]) [%]	mortality at 200 µg/mL (Plutella xylostella [5]) [%]	pIC50 (PANC-1)	mortality at 100 µg/mL (Plutella xylostella [6]) [%]	mortality at 100 µg/mL (Aphis craccivora [7]) [%]	mortality at 50 µg/mL (Aphis craccivora [8]) [%]	mortality at 50 µg/mL (Plutella xylostella [9]) [%]
O=c1[nH]cc(F)c(=O)[nH]1 [FLUOROURACIL]	4.53	4.25											
Cc1nn(C)c(Oc2ccccc2)c1/C=N/OCc1ccc(C(=O)OC(C)(C)C)cc1 [FENPYROXYMATE]			100	100	100								
CCCc1nnsc1CO/N=C/c1c(C)nn(C)c1Oc1ccccc1Cl	4.78	4.75		0		< 4.30	0	0	< 4.30				
Cc1nnsc1CO/N=C/c1c(C)nn(C)c1Oc1ccccc1Cl	4.37	< 4.30		0		< 4.30	15	100	< 4.30	0			
CCc1nnsc1CO/N=C/c1c(C)nn(C)c1Oc1ccc(OC(F)(F)F)cc1	4.90	4.87		0		< 4.30	0	0	< 4.30				
Cc1nnsc1CO/N=C/c1c(C)nn(C)c1Oc1cc(F)cc(F)c1	5.09	5.03		0		< 4.30	90	100	< 4.30	0	75	45	
Cc1nnsc1CO/N=C/c1c(C)nn(C)c1Oc1cccc(F)c1F	5.18	4.59		0		4.99	19	100	4.91	0			
CCCc1nnsc1CO/N=C/c1c(C)nn(C)c1Cl	< 4.30	< 4.30		0		< 4.30	0	0	< 4.30				
Cc1nnsc1CO/N=C/c1c(C)nn(C)c1Oc1ccc(I)cc1	4.36	< 4.30	0	90	60	< 4.30	95	64	< 4.30	62	70	41	60
Cc1nnsc1CO/N=C/c1c(C)nn(C)c1Oc1ccc(OC(F)(F)F)cc1	4.89	4.94		80		< 4.30	100	50	< 4.30	0	85	59	
Cc1cccc(Oc2c(/C=N/OCc3snnc3C)c(C)nn2C)c1	4.85	4.89		0		< 4.30	90	84	< 4.30	0	70	38	
CCCc1nnsc1CO/N=C/c1c(C)nn(C)c1Oc1ccc(Cl)cc1	4.72	4.73		0		< 4.30	0	0	< 4.30				
FC(F)(F)c1ccc(OCCCOc2c(Cl)cc(OCC=C(Cl)Cl)cc2Cl)nc1 [PYRIDALYL]								100		100			100
Cc1nnsc1CO/N=C/c1c(C)nn(C)c1Oc1ccc(Br)cc1	5.14	4.82		0		4.93	20	100	4.89	80			43
O=[N+]([O-])/N=C1\NCCN1Cc1ccc(Cl)nc1 [IMIDACLOPRID]							100				100	100	
CNC(=O)c1cc(Oc2ccc(NC(=O)Nc3ccc(Cl)c(C(F)(F)F)c3)cc2)ccn1 [SORAFENIB]									4.94				
Cc1nnsc1CO/N=C/c1c(C)nn(C)c1Oc1ccc(C(C)(C)C)cc1	4.47	< 4.30		0		< 4.30	95	100	< 4.30	0	80	50	
CCc1nnsc1CO/N=C/c1c(C)nn(C)c1Oc1ccc(C)cc1	< 4.30	4.70		0		< 4.30	0	0	< 4.30				
Cc1ccc(Oc2c(/C=N/OCc3snnc3C)c(C)nn2C)cc1	4.86	4.89		0		< 4.30	100	100	< 4.30	0	90	58	
Cc1nnsc1CO/N=C/c1c(C)nn(C)c1Oc1ccccc1OC(F)(F)F	< 4.30	< 4.30		0		< 4.30	22	66	< 4.30	0			
Cc1nnsc1CO/N=C/c1c(C)nn(C)c1Cl	< 4.30	< 4.30		0		< 4.30	100	100	4.58	0	85	61	
CCCc1nnsc1CO/N=C/c1c(C)nn(C)c1Oc1ccccc1C	4.80	4.79		0		< 4.30	0	0	< 4.30				
CCc1nnsc1CO/N=C/c1c(C)nn(C)c1Oc1ccccc1Cl	4.75	4.80		0		< 4.30	0	0	< 4.30				
Cc1nnsc1CO/N=C/c1c(C)nn(C)c1Oc1cccc(C(F)(F)F)c1	4.99	4.91		0		< 4.30	62	45	< 4.30		55	31	
Cc1nnsc1CO/N=C/c1c(C)nn(C)c1Oc1cccc(F)c1	< 4.30	< 4.30	0	80	50	< 4.30	98	71	< 4.30	0	80	52	
Cc1nnsc1CO/N=C/c1c(C)nn(C)c1Oc1ccc(F)cc1	4.52	< 4.30		0		< 4.30	99	100	< 4.30	0	90	60	
CCCc1nnsc1CO/N=C/c1c(C)nn(C)c1Oc1ccc(F)cc1	5.15	5.06		0		< 4.30	0	0	< 4.30				
CCc1nnsc1CO/N=C/c1c(C)nn(C)c1Cl	< 4.30	< 4.30		0		< 4.30	0	0	< 4.30				
